These compounds were tested on peach aphid (Myzus persicae) (assay: Insecticidal test against peach aphid, infested Chinese cabbage leaves sprayed). Conditions: peach aphid (Myzus persicae) on Chinese cabbage leaves, sprayed with 500 ppm composition unless otherwise stated, mortality assessed after 3 days.
Assay type: in vivo
Protocol: This Example illustrates the insecticidal properties of the compounds of Formula I. The activity of the compounds of Formula I was determined using a variety of pests. The pests were treated with a liquid composition containing 500 parts per million (ppm) by weight of the compound unless otherwise stated. The compositions were made by dissolving the compound in acetone and ethanol (50:50) mixture and diluting the solutions with water containing 0.05% by weight of a wetting agent sold under the trade name “SYNPERONIC” NP8 until the liquid composition contained the required concentration of the compound. “SYNPERONIC” is a Registered Trade Mark.
The test procedure adopted with regard to each pest was basically the same and comprised supporting a number of the pests on a medium which was usually a substrate, a host plant or a foodstuff on which the pests feed, and treating either or both the medium and the pests with the compositions. The mortality of the pests was then assessed at periods usually varying from two to five days after the treatment.
In this test Chinese cabbage leaves were infested with aphids, the infested leaves were sprayed with the test composition, and the mortality assessed after 3 days.

| Structure (SMILES) | Score (grading of mortality) |
| --- | --- |
| N#CC1(c2cncc(Cl)c2)CC2CCC(C1)N2Cc1c(F)c(F)c(F)c(F)c1F (stereo not drawn) [Compound 93, exo-3-(5-chloropyrid-3-yl)-endo-3-cyano-8-(pentafluorophenylmethyl)-8-azabicyclo[3.2.1]octane] | A (A indicates 80-100% mortality) |
| N#CC1(c2cncc(Cl)c2)CC2CCC(C1)N2c1ccc([N+](=O)[O-])cc1 (centres unmarked) [Compound 94] | C (C indicates less than 40% mortality) |
| CC(=O)N1C2CCC1CC(C#N)(c1cncc(Cl)c1)C2 (stereo not drawn) [Compound 95, exo-3-(5-chloropyrid-3-yl)-endo-3-cyano-8-acetyl-8-azabicyclo[3.2.1]octane] | A (A indicates 80-100% mortality) |
| N#CC1(c2cncc(Cl)c2)CC2CCC(C1)N2C(=O)C(F)(F)F (centres unmarked) [Compound 96] | A (A indicates 80-100% mortality) |
| N#CC1(c2cncc(Cl)c2)CC2CCC(C1)N2C(=O)c1ccc(Cl)cc1 (centres unmarked) [Compound 97] | C (C indicates less than 40% mortality) |
| N#CC1(c2cncc(Cl)c2)CC2CCC(C1)N2C(=O)c1ccc(F)cc1 (centres unmarked) [Compound 98] | A (A indicates 80-100% mortality) |
| N#CC1(c2cncc(Cl)c2)CC2CCC(C1)N2CCCF (centres unmarked) [Compound 99] | A (A indicates 80-100% mortality) |
| N#CC1(c2cncc(Cl)c2)CC2CCC(C1)N2Cc1ccc(C(F)(F)F)cc1C(F)(F)F (centres unmarked) [Compound 100] | A (A indicates 80-100% mortality) |
| N#CC1(c2cncc(Cl)c2)CC2CCC(C1)N2Cc1ccc(C(=O)O)cc1 (centres unmarked) [Compound 101] | A (A indicates 80-100% mortality) |
| CC=COc1cncc(C2(C#N)CC3CCC(C2)N3C)c1 (centres unmarked) [Compound 102] | A (A indicates 80-100% mortality) |
| N#CC1(c2cncc(Cl)c2)CC2CCC(C1)N2Cc1cccc(F)c1F (centres unmarked) [Compound 103] | A (A indicates 80-100% mortality) |
| N#CC1(c2cncc(Cl)c2)CC2CCC(C1)N2CCc1ccccc1 (stereo not drawn) [Compound 104, exo-3-(5-chloropyrid-3-yl)-endo-3-cyano-8-(2-phenylethyl)-8-azabicyclo[3.2.1]octane] | A (A indicates 80-100% mortality) |
| N#Cc1ccc(N2C3CCC2CC(C#N)(c2cncc(Cl)c2)C3)cc1 (centres unmarked) [Compound 105] | B (B indicates 40-79% mortality) |
| N#CC1(c2cncc(Cl)c2)CC2CCC(C1)N2CC=C(F)F (stereo not drawn) [Compound 106, exo-3-(5-chloropyrid-3-yl)-endo-3-cyano-8-(3,3-difluoroprop-2-en-1-yl)-8-azabicyclo[3.2.1]octane] | A (A indicates 80-100% mortality) |
| N#CC1(c2cncc(Cl)c2)CC2CCC(C1)N2CC(=O)O (centres unmarked) [Compound 107] | A (A indicates 80-100% mortality) |
| N#CC1(c2cncc(Cl)c2)CC2CCC(C1)N2Cc1cc(Br)cc(Br)c1 (centres unmarked) [Compound 108] | A (A indicates 80-100% mortality) |
| N#CC1(c2cncc(Cl)c2)CC2CCC(C1)N2Cc1ccc(F)c(Cl)c1 (stereo not drawn) [Compound 109, exo-3-(5-chloropyrid-3-yl)-endo-3-cyano-8-(3-chloro-4-fluorobenzyl)-8-azabicyclo[3.2.1]octane] | A (A indicates 80-100% mortality) |
| N#CC1(c2cncc(Cl)c2)CC2CCC(C1)N2C=O (stereo not drawn) [Compound 110, exo-3-(5-chloropyrid-3-yl)-endo-3-cyano-8-formyl-8-azabicyclo[3.2.1]octane] | A (A indicates 80-100% mortality) |
| CC(C)OC(=O)N1C2CCC1CC(C#N)(c1cncc(Cl)c1)C2 (centres unmarked) [Compound 111] | A (A indicates 80-100% mortality) |
| N#CC1(c2cncc(Cl)c2)CC2CCC(C1)N2S(=O)(=O)c1ccccc1 (centres unmarked) [Compound 112] | B (B indicates 40-79% mortality) |
| N#CC1(c2cncc(Cl)c2)CC2CCC(C1)N2Cc1c(F)cc(F)cc1F (centres unmarked) [Compound 113] | A (A indicates 80-100% mortality) |
| N#CC1(c2cncc(Cl)c2)CC2CCC(C1)N2Cc1c(F)ccc(F)c1F (centres unmarked) [Compound 114] | A (A indicates 80-100% mortality) |
| N#CC(c1ccccc1)N1C2CCC1CC(C#N)(c1cncc(Cl)c1)C2 (stereo not drawn) [Compound 115, exo-3-(5-chloropyrid-3-yl)-endo-3-cyano-8-(a-cyanobenzyl)-8-azabicyclo[3.2.1]octane] | A (A indicates 80-100% mortality) |
| COC(=O)N1C2CCC1CC(C#N)(c1cncc(Cl)c1)C2 (centres unmarked) [Compound 116] | A (A indicates 80-100% mortality) |

| Structure (SMILES) | Score (grading of mortality) |
| --- | --- |
| N#CC1(c2cncc(Cl)c2)CC2CCC(C1)N2Cc1ccccn1 (stereo not drawn) [Compound 117, exo-3-(5-chloropyrid-3-yl)-endo-3-cyano-8-(pyrid-2-ylmethyl)-8-azabicyclo[3.2.1]octane] | A (A indicates 80-100% mortality) |
| N#CC1(c2cncc(Cl)c2)CC2CCC(C1)N2Cc1cccnc1 (centres unmarked) [Compound 118] | A (A indicates 80-100% mortality) |
| N#CC1(c2cncc(Cl)c2)CC2CCC(C1)N2Cc1ccncc1 (centres unmarked) [Compound 119] | A (A indicates 80-100% mortality) |
| N#CC1(c2ccccn2)CC2CCC(C1)N2CCF (centres unmarked) [Compound 120] | A (A indicates 80-100% mortality) |
| C[C@H](c1ccccc1)N1C2CCC1CC(C#N)(c1cncc(Cl)c1)C2 (stereo partly drawn) [Compound 121, (R)-exo-3-(5-chloropyrid-3-yl)-endo-3-cyano-8-(1-phenylethyl)-8-azabicyclo[3.2.1]octane] | A (A indicates 80-100% mortality) |
| C[C@@H](c1ccccc1)N1C2CCC1CC(C#N)(c1cncc(Cl)c1)C2 (some centres unmarked) [Compound 122] | A (A indicates 80-100% mortality) |
| Cc1nc(CN2C3CCC2CC(C#N)(c2cncc(Cl)c2)C3)cs1 (stereo not drawn) [Compound 123, exo-3-(5-chloropyrid-3-yl)-endo-3-cyano-8-((2-methylthiazol-4-yl)methyl)-8-azabicyclo[3.2.1]octane] | A (A indicates 80-100% mortality) |
| Cc1noc(C)c1CN1C2CCC1CC(C#N)(c1cncc(Cl)c1)C2 (stereo not drawn) [Compound 124, exo-3-(5-chloropyrid-3-yl)-endo-3-cyano-8-((3,5-dimethylisoxazol-4-yl)methyl)-8-azabicyclo[3.2.1]octane] | A (A indicates 80-100% mortality) |
| N#CC1(c2cncc(Cl)c2)CC2CCC(C1)N2Cc1ccc(Cl)s1 (centres unmarked) [Compound 125] | A (A indicates 80-100% mortality) |
| N#CC1(c2cncc(Cl)c2)CC2CCC(C1)N2c1ccc(C(F)(F)F)cn1 (centres unmarked) [Compound 126] | C (C indicates less than 40% mortality) |
| N#CC1(c2cncc(Cl)c2)CC2CCC(C1)N2c1cccc(F)n1 (stereo not drawn) [Compound 128, exo-3-(5-chloropyrid-3-yl)-endo-3-cyano-8-(6-fluoropyrid-2-yl)-8-azabicyclo[3.2.1]octane] | A (A indicates 80-100% mortality) |
| N#CC1(c2cncc(Cl)c2)CC2CCC(C1)N2c1ccc(F)cc1 (centres unmarked) [Compound 129] | A (A indicates 80-100% mortality) |
| N#CC1(c2cncc(Cl)c2)CC2CCC(C1)N2CC(F)(F)C(F)(F)F (centres unmarked) [Compound 130] | A (A indicates 80-100% mortality) |
| N#CC1(c2cncc(Cl)c2)CC2CCC(C1)N2CC(F)(F)C(F)F (centres unmarked) [Compound 131] | A (A indicates 80-100% mortality) |
| N#CC1(c2cncc(Cl)c2)CC2CCC(C1)N2CC(F)(F)C(F)(F)C(F)(F)F (centres unmarked) [Compound 132] | A (A indicates 80-100% mortality) |
| N#CC1(c2cncc(Cl)c2)CC2CCC(C1)N2CC(F)(F)C(F)(F)C(F)(F)C(F)F (centres unmarked) [Compound 133] | A (A indicates 80-100% mortality) |
| CN1C2CCC1CC(C#N)(c1cncc(N)c1)C2 (stereo not drawn) [Compound 134, exo-3-(5-aminopyrid-3-yl)-endo-3-cyano-8-methyl-8-azabicyclo[3.2.1]octane] | A (A indicates 80-100% mortality) |
| N#CC1(c2cncc(Cl)c2)CC2CCC(C1)N2C(C(N)=O)c1ccccc1 (stereo not drawn) [Compound 135, exo-3-(5-chloropyrid-3-yl)-endo-3-cyano-8-(a-carbamylbenzyl)-8-azabicyclo[3.2.1]octane] | A (A indicates 80-100% mortality) |
| N#CC1(c2cncc(Cl)c2)CC2CCC(C1)N2c1cccc(C(F)(F)F)n1 (centres unmarked) [Compound 136] | C (C indicates less than 40% mortality) |
| N#CC1(c2cncc(Cl)c2)CC2CCC(C1)N2c1cccc(Cl)n1 (centres unmarked) [Compound 137] | C (C indicates less than 40% mortality) |
| N#CC1(c2cncc(Cl)c2)CC2CCC(C1)N2C(=S)S (stereo not drawn) [Compound 138, exo-3-(5-chloropyrid-3-yl)-endo-3-cyano-8-(mercaptothiocarbonyl)-8-azabicyclo[3.2.1]octane] | A (A indicates 80-100% mortality) |
| CC(C)(C)N1C2CCC1CC(C#N)(c1cncc(Cl)c1)C2 (stereo not drawn) [Compound 139, exo-3-(5-chloropyrid-3-yl)-endo-3-cyano-8-(tert-butyl)-8-azabicyclo[3.2.1]octane] | A (A indicates 80-100% mortality) |
| CCOC(=O)CCN1C2CCC1CC(C#N)(c1cncc(Cl)c1)C2 (stereo not drawn) [Compound 140, exo-3-(5-chloropyrid-3-yl)-endo-3-cyano-8-(2-(ethoxycarbonyl)ethyl)-8-azabicyclo[3.2.1]octane] | A (A indicates 80-100% mortality) |
